According to the supplement of paper PMC10307832:

Compound: NC(=O)[C@@H](CCC(F)(F)F)N(Cc1ccc(-c2ncon2)cc1F)S(=O)(=O)c1ccc(Cl)cc1 [Avagacestat] + CC(C)C[C@H](NC(=O)[C@H](Cc1ccccc1)NC(=O)c1cnccn1)B(O)O [Bortezomib] (partner 0.002 µM)
Test: relative viability (nuclei count vs DMSO), 5 days (fraction); higher = more cells survive
Procedure, shortened: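 Dosing by pin tool came one day after lung cancer cell lines were seeded in 1536-well plates, using either one drug or a fixed anchor-drug dose plus five library-drug doses (not always all listed) in √10 steps. After 5 days, nuclei were counted on 4× images. Relative viability is treated-well nuclei count divided by vehicle-well nuclei count, and values are medians of duplicate plates.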

Cell Line | relative viability (first compound 0.08 µM) | relative viability (first compound 0.253 µM) | relative viability (first compound 0.8 µM) | relative viability (first compound 2.53 µM) | relative viability (first compound 8 µM)
H3255 | 1.02 | 0.966 | 1.08 | 0.817 | 0.788
EPLC-272H | 1.02 | 1.02 | 1.05 | 1.21 | 0.922
SK-LU-1 | 1.46 | 1.21 | 1.32 | 1.13 | 0.737
EKVX | 1.18 | 1.44 | 1.23 | 0.885 | 0.9
ChaGo-K-1 | 1.02 | 0.914 | 1.14 | 1.32 | 1.06
NCI-H2347 | 1.1 | 0.914 | 0.935 | 0.862 | 0.79
EMC-BAC-2 | 1.22 | 1.17 | 1.23 | 1.08 | 1.11
LU99A | 1.28 | 1.13 | 0.938 | 1.1 | 1.19
LXF-289 | 1.04 | 1.1 | 0.972 | 0.99 | 0.911
NCI-H596 | 0.956 | 1.13 | 1.13 | 1.14 | 0.823
201T | 1.1 | 1.08 | 1.2 | 1.11 | 1.09
NCI-H3122 | 1.06 | 1.03 | 1.05 | 1.01 | 0.969
NCI-H1734 | 1.26 | 1.01 | 1.01 | 1.01 | 0.945
NCI-H1792 | 1.6 | 1.06 | 1.37 | 0.832 | 0.766
NCI-H2126 | 1.15 | 1.1 | 1.1 | 1.18 | 1.02
NCI-H23 | 1.19 | 1.42 | 1.12 | 1 | 0.822
PC-14 | 1.12 | 1.12 | 0.848 | 0.785 | 0.77
NCI-H727 | 0.956 | 0.927 | 1.04 | 0.981 | 0.828
NCI-H647 | 1.66 | 1.15 | 1.14 | 1.06 | 0.922
EBC-1 | 0.496 | 0.521 | 0.524 | 0.449 | 0.381
NCI-H838 | 0.977 | 0.922 | 0.93 | 0.863 | 0.502
NCI-H1355 | 1.37 | 1.38 | 1.33 | 1.14 | 1.1
NCI-H2009 | 1.04 | 1.03 | 1.07 | 1.02 | 0.828

Cell Line | relative viability (first compound 0.08 µM) | relative viability (first compound 0.253 µM) | relative viability (first compound 0.8 µM) | relative viability (first compound 2.53 µM) | relative viability (first compound 8 µM)
PC-3 [JPC-3] | 0.789 | 1.01 | 0.924 | 0.902 | 0.914
NCI-H1563 | 0.917 | 0.821 | 0.898 | 0.792 | 0.835
LCLC-97TM1 | 0.98 | 0.625 | 1.38 | 0.786 | 0.482
NCI-H520 | 0.728 | 0.555 | 0.679 | 0.48 | 0.334
UMC-11 | 0.915 | 0.563 | 0.722 | 0.749 | 0.414
BEN | 0.936 | 0.789 | 0.954 | 0.533 | 0.775
LCLC-103H | 1.01 | 1.07 | 1.03 | 1.07 | 1.04
COR-L23 | 1.58 | 1.3 | 1.14 | 1.03 | 0.528
NCI-H1651 | 1.06 | 1.07 | 1.05 | 0.944 | 0.933
SW 1573 | 1.26 | 1.03 | 1.19 | 0.967 | 0.922
NCI-H1975 | 0.382 | 0.343 | 0.415 | 0.327 | 0.318
NCI-H650 | 1.08 | 0.948 | 1.16 | 1.03 | 0.735
LC-2-ad | 1.16 | 1.12 | 1.04 | 0.934 | 0.941
NCI-H2023 | 1.13 | 1.1 | 1.08 | 0.886 | 0.808
NCI-H2228 | 1.12 | 0.952 | 1.05 | 0.886 | 0.734
NCI-H1299 | 1.03 | 1.01 | 1 | 1.01 | 0.991
NCI-H1650 | 0.212 | 0.232 | 0.196 | 0.211 | 0.21
HCC-78 | 0.508 | 0.51 | 0.514 | 0.313 | 0.366
RERF-LC-KJ | 1.17 | 1.37 | 1.16 | 1.04 | 1.02
IA-LM | 1.39 | 1.28 | 0.823 | 0.855 | 1.25
NCI-H1703 | 0.403 | 0.422 | 0.272 | 0.322 | 0.318
NCI-H1437 | 0.602 | 0.69 | 0.519 | 0.379 | 0.282
HOP-62 | 0.783 | 0.819 | 0.727 | 0.513 | 0.709

Cell Line | relative viability (first compound 0.08 µM) | relative viability (first compound 0.253 µM) | relative viability (first compound 0.8 µM) | relative viability (first compound 2.53 µM) | relative viability (first compound 8 µM)
HARA | 1.71 | 1.09 | 1.17 | 1.16 | 1.07
HCC-44 | 1.06 | 1.09 | 0.934 | 0.965 | 0.829
NCI-H441 | 0.66 | 0.925 | 0.531 | 0.485 | 0.248
NCI-H2405 | 1.06 | 1.03 | 0.999 | 0.919 | 0.94
NCI-H1993 | 1.37 | 1.35 | 1.47 | 1.27 | 1.3
NCI-H460 | – | – | 1.36 | 1.18 | 1.15
ABC-1 | 0.325 | 0.294 | 0.362 | 0.273 | 0.271
A-427 | 0.957 | 1.08 | 1.07 | 1.07 | 1.08
LOU-NH91 | 0.541 | 0.509 | 0.51 | 0.478 | 0.485
HCC-15 | 1.22 | 1.21 | 1.24 | 0.973 | 0.921
NCI-H661 | 0.919 | 1.06 | 0.774 | – | 0.693
HCC-366 | – | 1.98 | 1.29 | 1.22 | 0.887
NCI-H1666 | 0.942 | 0.78 | 0.861 | 0.83 | 0.842
NCI-H1915 | 1.02 | 1.11 | 1.13 | 1 | 0.951
NCI-H2085 | 1.13 | 1.21 | 1.14 | 1.13 | 0.992
COR-L 105 | 0.894 | 0.681 | 0.689 | 0.697 | 0.687
NCI-H1755 | 0.996 | 1.11 | 1.07 | 0.967 | 0.937
NCI-H322M | 1.27 | 1.23 | 1.4 | 1.05 | 1.17
CAL-12T | 1.13 | 0.982 | 1.42 | 1.09 | 1.14
HCC-827 | 1.09 | 1.13 | 1.13 | 1.05 | 1.12
NCI-H2087 | 0.946 | 1.05 | 0.917 | 0.918 | 0.8
